Here are results for four molecules from publication PMC7367925, “The EU-ToxRisk method documentation, data processing and chemical testing pipeline for the regulatory use of new approach methods” (Archives of Toxicology, 2020).

Structures are written as SMILES.

One data set has as its target T1, Progesterone receptor (Homo sapiens, UniProt P06401).
T1 construct: host or cells: U-2 OS
T1 sequence (P06401 1-933): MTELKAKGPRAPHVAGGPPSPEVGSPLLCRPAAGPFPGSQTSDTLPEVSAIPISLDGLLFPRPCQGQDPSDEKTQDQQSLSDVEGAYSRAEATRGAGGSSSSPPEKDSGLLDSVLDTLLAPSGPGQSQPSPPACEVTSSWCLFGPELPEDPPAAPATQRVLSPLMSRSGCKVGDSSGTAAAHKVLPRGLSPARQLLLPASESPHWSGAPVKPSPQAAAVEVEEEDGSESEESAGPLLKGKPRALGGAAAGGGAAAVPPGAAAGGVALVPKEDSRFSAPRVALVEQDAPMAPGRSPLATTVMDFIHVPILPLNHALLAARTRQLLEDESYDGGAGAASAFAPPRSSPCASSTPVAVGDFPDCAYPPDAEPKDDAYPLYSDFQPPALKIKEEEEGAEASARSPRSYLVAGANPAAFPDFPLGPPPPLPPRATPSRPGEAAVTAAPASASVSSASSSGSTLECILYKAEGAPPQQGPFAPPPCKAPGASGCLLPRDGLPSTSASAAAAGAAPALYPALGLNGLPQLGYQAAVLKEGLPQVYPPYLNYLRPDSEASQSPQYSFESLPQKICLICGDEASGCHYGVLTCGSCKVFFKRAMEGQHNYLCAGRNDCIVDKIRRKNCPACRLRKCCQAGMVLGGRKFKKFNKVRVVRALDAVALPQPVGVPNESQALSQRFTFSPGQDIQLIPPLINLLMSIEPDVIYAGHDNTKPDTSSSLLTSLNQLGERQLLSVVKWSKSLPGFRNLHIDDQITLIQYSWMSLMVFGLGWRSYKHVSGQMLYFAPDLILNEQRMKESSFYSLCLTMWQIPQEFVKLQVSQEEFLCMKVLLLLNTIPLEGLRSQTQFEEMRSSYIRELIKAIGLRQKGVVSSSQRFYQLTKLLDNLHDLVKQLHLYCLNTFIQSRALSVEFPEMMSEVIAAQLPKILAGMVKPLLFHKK
The data set can be described thus: PR-anti CALUX. It is filed as cell-based. The settings on record: 24 h exposure, lowest effect level PC20, reference agonist at EC50, means from 3 assay runs. Here is the method:
(§1) After 24 h, exposure medium was prepared. […] All samples were tested in triplicates. […] Fig. SM_4. […] Fig. SM_4.
(§2) Supplementary Material SM_4
(§3) Overview of CALUX assays.
(§4) This is defined as the concentration of test compound […]
(§5) for an antagonist assay is a PC20.
(§6) PC = positive control. FI = fold induction. PC10: concentration where test compound causes an activation equal to 10% of the maximum effect (positive control). PC20: concentration where test compound causes […]
(§7) FI=1.5: concentration where test
(§8) (A) exemplary graph of concentration- […]
(§9) receptor antagonism assay with PC20 as lowest-effect-level. (C) exemplary graph for assay with 1.5 fold inductionas lowest effect level. 9

For another data set, the target named is T2, Pregnane X receptor (Homo sapiens, UniProt O75469).
T2 construct: host or cells: U-2 OS
T2 sequence (O75469 1-434): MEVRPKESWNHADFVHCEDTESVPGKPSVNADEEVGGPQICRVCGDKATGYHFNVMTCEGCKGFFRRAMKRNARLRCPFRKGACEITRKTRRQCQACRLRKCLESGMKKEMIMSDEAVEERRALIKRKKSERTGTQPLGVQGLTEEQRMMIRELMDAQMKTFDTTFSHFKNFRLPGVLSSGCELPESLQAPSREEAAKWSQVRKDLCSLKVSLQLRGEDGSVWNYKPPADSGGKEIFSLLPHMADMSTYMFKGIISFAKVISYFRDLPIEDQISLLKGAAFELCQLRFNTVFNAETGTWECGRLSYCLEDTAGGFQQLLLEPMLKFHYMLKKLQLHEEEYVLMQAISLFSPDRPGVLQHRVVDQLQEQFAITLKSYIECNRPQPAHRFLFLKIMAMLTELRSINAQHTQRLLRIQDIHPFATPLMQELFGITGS
Description: PXR CALUX. It is filed as cell-based. The settings on record: 24 h exposure, lowest effect level PC10, means from 3 assay runs. Here is the method: as §1, §2, §3, §4, §5, §6, §7, §8, §9

A further data set has as its target T3, PPARα (Homo sapiens, UniProt Q07869).
T3 construct: host or cells: U-2 OS
T3 sequence (Q07869 1-468): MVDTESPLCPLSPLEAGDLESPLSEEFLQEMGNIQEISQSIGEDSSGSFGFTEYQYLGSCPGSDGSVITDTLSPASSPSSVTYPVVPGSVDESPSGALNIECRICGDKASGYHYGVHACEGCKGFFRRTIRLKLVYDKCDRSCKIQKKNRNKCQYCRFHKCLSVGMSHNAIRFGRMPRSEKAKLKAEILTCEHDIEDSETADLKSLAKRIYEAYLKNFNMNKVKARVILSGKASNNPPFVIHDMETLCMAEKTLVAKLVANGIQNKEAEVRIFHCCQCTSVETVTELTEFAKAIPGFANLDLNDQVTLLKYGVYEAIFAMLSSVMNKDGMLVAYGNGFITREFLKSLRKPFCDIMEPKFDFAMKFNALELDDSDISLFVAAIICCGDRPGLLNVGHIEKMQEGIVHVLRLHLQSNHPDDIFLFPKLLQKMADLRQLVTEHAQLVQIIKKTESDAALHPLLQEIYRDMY
Description: PPARa CALUX. It is filed as cell-based. The settings on record: 24 h exposure, lowest effect level PC10, means from 3 assay runs. The protocol:
as §1
(§10) Cell line Endpoint effect Reference compound […]
PPARa CALUX Peroxisomeproliferator activated receptor agonists PC10 GW7647 […]
as §2, §3, §4, §5, §6, §7, §8, §9

For data set [1], the system named is wnt/TCF pathway activation. Description: TCF CALUX. It is filed as cell-based, human. The settings on record: 24 h exposure, lowest effect level FI=1.5, means from 3 assay runs.
The subject of data set [2] is Endoplasmic reticulum stress. Description: ESRE CALUX. It is filed as cell-based, human. The settings on record: 24 h exposure, lowest effect level PC10, means from 3 assay runs. Here is the method:
as §1, §2, §3, §4, §5, §6, §7, §8, §9

Data set [3] concerns Transcription of p21 inhibitor of cell cycle progression. The data set can be described thus: p21 CALUX. It is filed as cell-based, human. The settings on record: 24 h exposure, lowest effect level PC10, means from 3 assay runs. The protocol:
as §1, §2, §3, §4, §5, §6, §7, §8, §9

For data set [4] the following is noted: human, plasma; cited from earlier work.
Data set [5] deals with U-2 OS reporter cell lines battery. Description: CALUX reporter gene assay battery as a whole. The settings on record: all CALUX assays, 13 concentrations, 24 h exposure.
Description: CALUX® assay procedure: Testing was performed in non-blinded fashion. […] In brief, the assay was performed in assay medium, consisting of DMEM without phenol red indicator (Gibco) supplemented with 5% charcoal-stripped fetal calf serum (DCC), 1 × non-essential amino acids (Gibco) and 10 U/ml penicillin and 10 µg/ml streptomycin. A cell suspension in assay medium was made of 1 × 10^5 cells/ml, and white 384-wells plates were seeded with 30 µl cell suspension/well. After 24 h, exposure medium was prepared. A dilution series in 0.5 log unit increments of each test compound (in DMSO) was added to a 96-wells plate containing assay medium. Of this exposure mixture, 30 µl was added to the assay plates containing the CALUX® cells, resulting in a final DMSO concentration of 0.1%. Additionally, DMSO blanks and a full dose response curve of the reference compounds were included on each plate. All samples were tested in triplicates. The preparation of the compound dilution series as well as the exposure of the cells were performed on a Hamilton Starlet liquid handling robot coupled to a Cytomat incubator. […] Subsequently, the luciferase signal was measured in a luminometer (InfinitePro coupled to a Connect Stacker, both TECAN). To be able to detect receptor antagonism, the assays were also performed in antagonistic mode using the receptor cell lines. The assay procedure was as described above, with the only exception that the reference agonists were present during the exposure at a concentration corresponding to their EC50.
ERa CALUX Estrogen receptor agonists PC10 estradiol
ERa-anti CALUX Estrogen receptor antagonists PC20 tamoxifen
AR CALUX Androgen receptor agonists PC10 dihydrotestosterone(DHT)
AR-anti CALUX Androgen receptor antagonists PC20 flutamide
PR CALUX Progesterone receptor agonists PC10 Org2058
PR-anti CALUX Progesterone receptor antagonists PC20 Ru486
GR CALUX Glucocorticoid receptor agonists PC10 dexamethasone (DEX)
GR-anti CALUX Glucocorticoid receptor antagonists PC20 Ru486
TRb CALUX Thyroid receptor agonists PC10 3,3‘5-trioiodo-L-thyronine (T3)
TRb-anti CALUX Thyroid receptor antagonists PC20 deoxynivalenol
RAR CALUX Retinoic acid receptor agonists PC10 retinoic acid
LXR CALUX Liver X receptor agonists PC10 GW3965 hydrochloride
PXR CALUX Pregnane X receptor agonists PC10 nicardipine
PPARa CALUX Peroxisomeproliferator activated receptor agonists PC10 GW7647 PPARg2 CALUX Peroxisome proliferator activated receptor agonists PC10 rosiglitazone
DR CALUX / AhR Aryl Hydrocarbon receptor agonists PC10 2,3,7,8-TCDD
Hif1a CALUX Chemical hypoxia response PC10 cobaltous(II)chloride
TCF CALUX wnt/TCF pathway activation FI=1.5 lithium chloride
AP-1 CALUX AP1 pathway activation / cell cycle control PC10 TPA (PMA)
ESRE CALUX Endoplasmic reticulum stress PC10 tunicamycin
NFkB CALUX Activation of NF-kB pathway (immune response) PC10 TPA (PMA)
Nrf2 CALUX Oxidative stress FI=1.5 curcumine
p21 CALUX Transcription of p21 inhibitor of cell cycle progression PC10 actinomycin D
p53 CALUX p53-dependent pathway activation / genotoxicity FI=1.5 actinomycin D
Cytotox CALUX Cytoxicity PC20 tributyltinacetate
(§11) The point od departure (PoD) if all these assays is defined by a “lowest effect level”.
(§12) A typical endpoint for an agonist assay is a PC10. This is defined as the concentration of test compound
giving a signal level that corresponds to 10% of the difference of the baseline (no agonist) and the maximal
Another data set deals with T4, PPARδ (Homo sapiens, UniProt Q03181).
T4 construct: host or cells: U-2 OS
T4 sequence (Q03181 1-441): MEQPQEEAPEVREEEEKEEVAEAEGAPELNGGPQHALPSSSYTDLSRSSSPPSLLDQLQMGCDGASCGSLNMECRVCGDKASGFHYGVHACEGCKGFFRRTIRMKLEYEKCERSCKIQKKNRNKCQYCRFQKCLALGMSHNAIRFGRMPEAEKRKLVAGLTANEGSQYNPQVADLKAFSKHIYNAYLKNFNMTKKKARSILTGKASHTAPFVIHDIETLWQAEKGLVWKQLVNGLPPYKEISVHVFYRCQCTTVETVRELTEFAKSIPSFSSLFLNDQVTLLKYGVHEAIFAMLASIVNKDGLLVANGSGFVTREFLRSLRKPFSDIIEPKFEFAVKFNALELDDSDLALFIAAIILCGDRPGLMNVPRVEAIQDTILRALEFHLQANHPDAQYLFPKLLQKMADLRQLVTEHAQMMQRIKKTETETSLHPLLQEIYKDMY
Description: PPARd CALUX. It is filed as cell-based. The settings on record: 24 h exposure, lowest effect level PC10, means from 3 assay runs.

The next data set concerns the target T5, PPARγ (Homo sapiens, UniProt P37231).
T5 construct: host or cells: U-2 OS
T5 sequence (P37231 1-505): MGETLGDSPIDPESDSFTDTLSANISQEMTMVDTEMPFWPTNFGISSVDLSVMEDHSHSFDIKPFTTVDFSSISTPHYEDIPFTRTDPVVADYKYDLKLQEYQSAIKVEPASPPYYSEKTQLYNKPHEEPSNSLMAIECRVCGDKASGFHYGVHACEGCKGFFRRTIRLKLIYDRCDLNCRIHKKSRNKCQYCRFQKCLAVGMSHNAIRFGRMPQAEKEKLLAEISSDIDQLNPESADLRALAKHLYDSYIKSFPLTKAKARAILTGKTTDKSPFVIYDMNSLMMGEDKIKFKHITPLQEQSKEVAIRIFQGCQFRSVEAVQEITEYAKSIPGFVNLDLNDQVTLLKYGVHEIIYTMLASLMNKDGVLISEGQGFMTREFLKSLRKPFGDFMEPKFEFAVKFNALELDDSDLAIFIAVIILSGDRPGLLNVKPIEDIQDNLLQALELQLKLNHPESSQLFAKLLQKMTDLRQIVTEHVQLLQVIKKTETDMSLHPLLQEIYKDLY
The data set can be described thus: PPARg2 CALUX. The settings on record: 24 h exposure, lowest effect level PC10, means from 3 assay runs. It is filed as cell-based. Here is the method:
as §1, §10, §2, §3, §4, §5, §6, §7, §8, §9

The test system of data set [6] is p53-dependent pathway activation / genotoxicity. It is filed as cell-based, human. The settings on record: 24 h exposure, lowest effect level FI=1.5, means from 3 assay runs. The protocol: as §1, §2, §3, §4, §5, §6, §7, §8, §9
The target in data set [7] is T6, Aryl Hydrocarbon receptor (Rattus norvegicus, UniProt P41738).
T6 construct: host or cells: rat hepatoma H-4-II-E (ATCC CRL-1548)
T6 sequence (P41738 10-853): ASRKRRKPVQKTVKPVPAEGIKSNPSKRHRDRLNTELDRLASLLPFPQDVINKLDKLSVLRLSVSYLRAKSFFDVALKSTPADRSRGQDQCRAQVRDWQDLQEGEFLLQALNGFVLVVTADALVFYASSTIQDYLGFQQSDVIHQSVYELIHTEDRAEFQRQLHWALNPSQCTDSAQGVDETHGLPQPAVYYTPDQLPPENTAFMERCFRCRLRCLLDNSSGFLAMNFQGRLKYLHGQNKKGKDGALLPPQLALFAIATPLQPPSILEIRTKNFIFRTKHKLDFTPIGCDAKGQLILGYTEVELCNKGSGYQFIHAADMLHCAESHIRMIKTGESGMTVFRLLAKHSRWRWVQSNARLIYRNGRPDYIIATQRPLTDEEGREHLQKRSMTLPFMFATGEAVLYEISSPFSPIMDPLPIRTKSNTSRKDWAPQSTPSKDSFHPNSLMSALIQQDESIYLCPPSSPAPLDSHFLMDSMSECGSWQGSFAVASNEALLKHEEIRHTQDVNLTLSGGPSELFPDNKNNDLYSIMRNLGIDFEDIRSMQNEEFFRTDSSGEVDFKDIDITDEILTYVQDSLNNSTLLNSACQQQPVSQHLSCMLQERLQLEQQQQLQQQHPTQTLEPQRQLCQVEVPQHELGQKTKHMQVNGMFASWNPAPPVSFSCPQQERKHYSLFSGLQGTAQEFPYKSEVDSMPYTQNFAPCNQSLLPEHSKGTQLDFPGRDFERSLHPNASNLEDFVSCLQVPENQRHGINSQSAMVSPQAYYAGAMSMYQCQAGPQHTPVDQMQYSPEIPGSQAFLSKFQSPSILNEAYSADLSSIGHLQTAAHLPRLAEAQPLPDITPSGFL
Description: DR CALUX / AhR CALUX (rat hepatoma H-4-II-E cells). It is filed as cell-based. The settings on record: 24 h exposure, lowest effect level PC10, means from 3 assay runs.

The next data set has as its system Nrf2 (Oxidative stress). Description: Nrf2 CALUX. It is filed as cell-based, human. The settings on record: 24 h exposure, lowest effect level FI=1.5, means from 3 assay runs. The protocol:
as §1, §2, §3, §4, §5, §6, §7, §8, §9

The test system of another data set is U-2 OS cells. Description: Cytotox CALUX. The settings on record: 24 h exposure, lowest effect level PC20, means from 3 assay runs.

Description for U-2 OS cells: Wild-type U-2 OS cells (HTB-96) were obtained from ATCC.
CALUX® assay procedure: Testing was performed in non-blinded fashion. […] In brief, the assay was performed in assay medium, consisting of DMEM without phenol red indicator (Gibco) supplemented with 5% charcoal-stripped fetal calf serum (DCC), 1 × non-essential amino acids (Gibco) and 10 U/ml penicillin and 10 µg/ml streptomycin. A cell suspension in assay medium was made of 1 × 10^5 cells/ml, and white 384-wells plates were seeded with 30 µl cell suspension/well. After 24 h, exposure medium was prepared. A dilution series in 0.5 log unit increments of each test compound (in DMSO) was added to a 96-wells plate containing assay medium. Of this exposure mixture, 30 µl was added to the assay plates containing the CALUX® cells, resulting in a final DMSO concentration of 0.1%. Additionally, DMSO blanks and a full dose response curve of the reference compounds were included on each plate. All samples were tested in triplicates. The preparation of the compound dilution series as well as the exposure of the cells were performed on a Hamilton Starlet liquid handling robot coupled to a Cytomat incubator. […] Subsequently, the luciferase signal was measured in a luminometer (InfinitePro coupled to a Connect Stacker, both TECAN).
as §11, §12

In the case of `CCCC(CCC)C(=O)O` [Valproic acid], the “PoD PR - anta” value at Progesterone receptor was 3.1 -log(M). The “PoD PXR - ago” value at Pregnane X receptor is recorded as 4.0 -log(M). Further, the “PoD PPARα - ago” value on PPARα is given as 4.0 -log(M). For the same molecule, the “PoD TCF” value in data set [1] was 4.0 -log(M). The “PoD ESRE” value in [2] is listed as 4.0 -log(M). Also, the “PoD p21” value in data set [3] is given as 3.2 -log(M).

Consider `CC(=O)Nc1ccc(O)cc1` [Paracetamol], for which the protein binding in data set [4] is on record as 15%. For the same molecule, the “response profile over the CALUX battery (in words)” value in [5] was “no effect”.

As for `CC(C)Cc1ccc(C(C)C(=O)O)cc1` (stereo not drawn) [Ibuprofen], the “PoD PPARα - ago” value at PPARα is on record as 4.3 -log(M). Also, the “PoD PPARδ - ago” value at PPARδ was 4.0 -log(M). Further, the “PoD PPARγ - ago” value on PPARγ is listed as 4.0 -log(M). The “PoD p53” value in [6] is given as 3.0 -log(M). Further, in data set [5], the “response profile over the CALUX battery (in words)” value is given as “activated all three isoforms of the peroxisome proliferator activated receptor”.

In the case of `CC(C)(C)C(O)(CCc1ccc(Cl)cc1)Cn1cncn1` (stereo not drawn) [Tebuconazole], at Progesterone receptor, the “PoD PR - anta” value is given as 5.6 -log(M). Moreover, on Pregnane X receptor, the “PoD PXR - ago” value was 5.8 -log(M). In [7], the “PoD AhR - ago” value is given as 5.1 -log(M). Further, the “PoD Nrf2” value in the data set with Nrf2 (Oxidative stress) is recorded as 4.2 -log(M). In addition, the PoD cytotoxicity in the data set with U-2 OS cells is recorded as 4.3 -log(M).
